Measurements reported in patent US8053447B2, “11β-hydroxysteroid dehydrogenase type 1 active compounds” (High Point Pharmaceuticals, LLC, priority 2006, dated 2011).

Each compound was assayed against T1, h-11βHSD1 (Homo sapiens, UniProt P28845) (assay: 11βHSD1 enzyme assay (scintillation proximity assay, 3H-cortisone to 3H-cortisol)). Settings: extract of yeast transformed with h-11βHSD1; 120 nM 3H-cortisone, 4 mM β-NADPH, 60 min at 30° C., SPA.
T1 construct: made in house
Assay type: biochemical
Experimental: Pharmacological Methods 11βHSD1 Enzyme Assay Materials
^3H-cortisone and anti-rabbit Ig coated scintillation proximity assay (SPA) beads were purchased from Amersham Pharmacia Biotech, β-NADPH was from Sigma and rabbit anti-cortisol antibodies were from Fitzgerald. An extract of yeast transformed with h-11βHSD1 (Hult et al., FEBS Lett, 441, 25 (1998)) was used as the source of enzyme. The test compounds were dissolved in DMSO (10 mM). All dilutions were performed in a buffer containing 50 mM TRIS-HCl (Sigma Chemical Co), 4 mM EDTA (Sigma Chemical Co), 0.1% BSA (Sigma Chemical Co), 0.01% Tween-20 (Sigma Chemical Co) and 0.005% bacitracin (Novo Nordisk A/S), pH=7.4. Optiplate 96 wells plates were supplied by Packard. The amount of ^3H-cortisol bound to the SPA beads was measured on TopCount NXT, Packard.
h-11βHSD1, 120 nM ^3H-cortisone, 4 mM β-NADPH, antibody (1:200), serial dilutions of test compound and SPA particles (2 mg/well) were added to the wells. The reaction was initiated by mixing the different components and was allowed to proceed under shaking for 60 min at 30° C. The reaction was stopped be the addition of 10 fold excess of a stopping buffer containing 500 μM carbenoxolone and 1 μM cortisone. Data was analysed using GraphPad Prism software.

T1 sequence (P28845 whole entry): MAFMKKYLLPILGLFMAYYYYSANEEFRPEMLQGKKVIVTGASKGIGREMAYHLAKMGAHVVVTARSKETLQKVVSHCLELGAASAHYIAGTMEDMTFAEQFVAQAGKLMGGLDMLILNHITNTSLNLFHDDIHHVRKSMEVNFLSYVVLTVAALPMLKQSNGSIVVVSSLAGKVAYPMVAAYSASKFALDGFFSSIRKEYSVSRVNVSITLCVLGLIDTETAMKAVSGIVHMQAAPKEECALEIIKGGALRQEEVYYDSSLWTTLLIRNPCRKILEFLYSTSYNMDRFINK

Row | IC50 [µM] | SMILES
1 | 0.118 | O=C(NC1C2CC3CC(C2)CC1C3)c1ccc(OC2CCC(NC(=O)C3CC3)CC2)cc1 (mixture of isomers) [Example 2c, cis/trans-4-[4-(Cyclopropanecarbonyl-amino)-cyclohexyl-oxy]-N-adamantan-2-yl-benzamide]
2 | 0.678 | O=C(NC1C2CC3CC(C2)CC1C3)c1ccc(OC2CCC(C(=O)O)CC2)cc1 (mixture of isomers) [Example 4a, Cis/trans 4-[4-adamantan-2-ylcarbamoyl)-phenoxy]-cyclohexanecarboxylic acid]
3 | 0.13 | CCOC(=O)C1CCC(Oc2ccc(C(=O)N3CC4(C)CC3CC(C)(C)C4)cc2)CC1 (stereo not shown) [Example 1a, 4-[4-(1,3,3-Trimethyl-6-aza-bicyclo[3.2.1]octane-6-carbonyl)-phenoxy]-cyclo-hexanecarboxylic acid ethyl ester]
4 | 0.205 | O=C(NC1C2CC3CC(C2)CC1C3)c1ccc(OC2CCN(C(=O)C3CC3)CC2)cc1 (stereo not shown) [Example 1b, 4-(1-Cyclopropanecarbonyl-piperidin-4-yloxy)-N-ada-mantan-2-yl-benzamide]
5 | 0.075 | O=C(NC1C2CC3CC(C2)CC1C3)c1ccc(OC2CCC(O)CC2)cc1 (stereo not shown) [Example 1d, N-Adamantan-2-yl-4-(4-hydroxy-cyclohexyloxy)-benzamide]
6 | 0.19 | Cc1c[nH]c(SCC2CCC(Oc3ccc(C(=O)NC4C5CC6CC(C5)CC4C6)cc3)CC2)n1 (stereo not shown) [Example 1e, N-Adamantan-2-yl-4-[4-(4-methyl-1H-imidazol-2-yl-sulfanylmethyl)-cyclo-hexyloxy]-benzamide]
7 | 0.465 | O=C(NC1C2CC3CC(C2)CC1C3)c1ccc(OCC2CCC(O)CC2)cc1 (stereo not shown) [Example 1f, 4-(4-Hydroxy-cyclohexyl-methoxy)-N-adamantan-2-yl-benzamide]
8 | 1.45 | O=C(O)C1CCC(Oc2ccc(C(=O)N3CC4CCC(CC4)C3)cc2)CC1 (stereo not shown) [Example 2a, 4-[4-(3-Aza-bicyclo[3.2.2]-nonane-3-carbonyl)-phen-oxy]-cyclohexane carbox-ylic acid]
9 | 0.284 | CC(C)CC(=O)N1CCC(Oc2ccc(C(=O)NC3C4CC5CC(C4)CC3C5)cc2)CC1 (stereo not shown) [Example 2b, 4-[1-(3-Methyl-butyryl)-piperidin-4-yloxy]-N-ada-mantan-2-yl-benzamide]
10 | 0.18 | O=C(NC1C2CC3CC(C2)CC1C3)c1ccc(OC2CCC(On3cccn3)CC2)cc1 (stereo not shown) [Example 2d, 4-[4-(Pyrazol-1-yloxy)-cyclohexyloxy]-N-adaman-tan-2-yl-benzamide]
11 | 0.19 | O=C(NC1C2CC3CC(C2)CC1C3)c1ccc(OC2CCC(COn3cccn3)CC2)cc1 (stereo not shown) [Example 2e, 4-[4-(Pyrazol-1-yl-oxy-methyl)-cyclohexyloxy]-N-adamantan-2-yl-benzamide]
12 | 0.134 | Cn1cnc(S(=O)(=O)N2CCC(COc3ccc(C(=O)N4CCCC5CCCCC54)cc3)CC2)c1 (stereo not shown) [Example 2f, {4-[1-(1-Methyl-1H-imidazole-4-sulfonyl)-piperidin-4-yl-methoxy]-phenyl}-(octahydro-quinolin-1-yl)-methanone]
13 | 0.359 | O=C(c1ccc(N2[C@@H]3CC[C@H]2CC(Oc2ccccn2)C3)cc1)N1CCCC2CCCCC21 (stereo partly drawn) [Example 2h, (Octahydro-quinolin-1-yl)-{4-[(1S,5R)-3-(pyridin-2-yloxy)-8-aza-bicyclo[3.2.1]oct-8-yl]-phenyl}-methanone]
14 | 0.405 | O=C(O)C1CCC(Oc2ccc(C(=O)N3CCCC4CCCCC43)cc2)CC1 (stereo not shown) [Example 3a, 4-[4-(Octahydro-quinoline-1-carbonyl)-phenoxy]-cyclohexanecarboxylic acid]
15 | 1.4 | CC(C)CC(=O)N1CCC(Oc2ccc(C(=O)N3CC4CCC(CC4)C3)cc2)CC1 [Example 3b, 1-{4-[4-(3-Aza-bicyclo-[3.2.2]nonane-3-carbonyl)-phenoxy]-piperidin-1-yl}-3-methyl-butan-1-one]
16 | 0.096 | O=C(NC1C2CC3CC(C2)CC1C3)c1ccc(O[C@H]2CC[C@@H](NS(=O)(=O)c3ccccn3)CC2)cc1 (stereo partly drawn) [Example 3c, Cis-N-Adamantan-2-yl-4-[4-(pyridine-2-sulfonylamino)-cyclohexyloxy]-benzamide]
17 | 0.3 | O=C(O)c1ccc(OCC2CCC(Oc3ccc(C(=O)NC4C5CC6CC(C5)CC4C6)cc3)CC2)cc1 (stereo not shown) [Example 3e, 4-{4-[4-(Adamantan-2-yl-carbamoyl)-phenoxy]-cyclo-hexylmethoxy}-benzoic acid]

Row | IC50 [µM] | SMILES
18 | 0.271 | CCS(=O)(=O)N1CCC(COc2ccc(C(=O)N3CCCC4CCCCC43)cc2)CC1 (stereo not shown) [Example 3f, [4-(1-Ethanesulfonyl-piperidin-4-yl-methoxy)-phenyl]-(octahydro-quinolin-1-yl)-methanone]
19 | 2.82 | Cc1ccc(S(=O)(=O)NC(=O)N2CCC(Oc3ccc(C(=O)N4CC5CCC(CC5)C4)cc3)C2)cc1 (stereo not shown) [Example 3g, N-{3-[4-(3-Aza-bicyclo-[3.2.2]nonane-3-carbonyl)-phenoxy]-pyrrolidine-1-carbonyl}-4-methyl-benzenesulfonamide]
20 | 0.976 | O=C(NC1C2CC3CC(C2)CC1C3)c1ccc(N2[C@@H]3CC[C@H]2CC(Oc2ccccn2)C3)cc1 (stereo partly drawn) [Example 3h, 4-[(1S,5R)-3-(Pyridin-2-yloxy)-8-aza-bicyclo[3.2.1]oct-8-yl]-N-adamantan-2-yl-benzamide]
21 | 2.31 | O=C(C1CC1)N1CCC(Oc2ccc(C(=O)N3CC4CCCC3C4)cc2)CC1 (stereo not shown) [Example 4b, (6-Aza-bicyclo[3.2.1]oct-6-yl)-[4-(1-cyclopropane-carbonyl-piperidin-4-yloxy)-phenyl]-methanone]
22 | 0.051 | O=C(c1ccc(O[C@H]2CC[C@@H](NS(=O)(=O)c3ccccn3)CC2)cc1)N1CCCC2CCCCC21 (stereo partly drawn) [Example 4c, Cis-Pyridine-2-sulfonic acid {4-[4-(octahydro-quinoline-1-carbonyl)-phenoxy]-cyclo-hexyl}-amide]
23 | 0.482 | C=CCOC(=O)c1ccc(OCC2CCC(Oc3ccc(C(=O)NC4C5CC6CC(C5)CC4C6)cc3)CC2)cc1 (stereo not shown) [Example 4e, 4-{4-[4-(Adamantan-2-yl-carbamoyl)-phenoxy]-cyclo-hexylmethoxy}-benzoic acid allyl ester]
24 | 1.36 | CN(C(=O)c1ccc(OCC2CCN(S(=O)(=O)c3ccccn3)CC2)cc1)C1C2CC3CC1CC(O)(C3)C2 (stereo not shown) [Example 4f, N-(5-Hydroxy-adamantan-2-yl)-N-methyl-4-[1-(pyridine-2-sulfonyl)-piperidin-4-yl-methoxy]-benzamide]
25 | 0.588 | CC1(C)CC2CC(C)(CN2C(=O)c2ccc(O[C@H]3CC[C@@H](C(=O)O)CC3)cc2)C1 (stereo partly drawn) [Example 5a, Cis-4-[4-(1,3,3-trimethyl-6-aza-bicyclo [3.2.1]octane-6-carbonyl)-phenoxy]-cyclo-hexanecarboxylic acid]
26 | 1.3 | CC(C)CC(=O)N1CCC(Oc2ccc(C(=O)N3CC4CCCC3C4)cc2)CC1 (stereo not shown) [Example 5b, 1-{4-[4-(6-Aza-bicyclo[3.2.1]-octane-6-carbonyl)-phenoxy]-piperidin-1-yl}-3-methyl-butan-1-one]
27 | 0.158 | O=C(NC1C2CC3CC(C2)CC1C3)c1ccc(O[C@H]2CC[C@@H](NC(=O)C3CC3)CC2)cc1 (stereo partly drawn) [Example 5c, Cis-N-Adamantan-2-yl-4-[4-(cyclopropanecarbonyl-amino)-cyclohexyloxy]-benzamide]
28 | 1.8 | CC(C)NC(=O)N1CCC(COc2ccc(C(=O)N(C)C3C4CC5CC3CC(O)(C5)C4)cc2)CC1 (stereo not shown) [Example 5f, 4-{4-[(5-Hydroxy-adamantan-2-yl)-methyl-carbamoyl]-phenoxy-methyl}-piperidine-1-carboxylic acid isopropyl-amide]
29 | 1.2 | CC1(C)CC2CC(C)(CN2C(=O)c2ccc(O[C@H]3CC[C@H](C(=O)O)CC3)cc2)C1 (stereo partly drawn) [Example 6a, Trans-4-{4-(1,3,3-trimethyl-6-aza-bicyclo [3.2.1]oct-ane6-carbonyl)-phenoxy]-cyclo-hexanecarboxylic acid]
30 | 0.12 | O=C(N[C@H]1CC[C@@H](Oc2ccc(C(=O)N3CCCC4CCCCC43)cc2)CC1)C1CC1 (stereo partly drawn) [Example 6c, Cis-Cyclopropanecarboxylic acid {4-[4-(octahydro-quino-line-1-carbonyl)-phenoxy]-cyclohexyl}-amide]
31 | 2.27 | CN(C(=O)c1ccc(OCC2CCN(S(=O)(=O)c3cn(C)cn3)CC2)cc1)C1C2CC3CC1CC(O)(C3)C2 (stereo not shown) [Example 6f, N-(5-Hydroxy-adamantan-2-yl)-N-methyl-4-[1-(1-methyl-1H-imidazole-4-sulfonyl)-piperidin-4-ylmethoxy]-benzamide]
32 | 1.4 | O=C(O)C1CCC(Oc2ccc(C(=O)N3CC4CCC(CC4)C3)cc2)C1 (stereo not shown) [Example 7a, 3-[4-(3-Aza-bicyclo[3.2.2]-nonane-3-carbonyl)-phenoxy]-cyclopentane-carboxylic acid]
33 | 1.12 | CN(C(=O)c1ccc(OC2CCC(NS(=O)(=O)c3ccccn3)CC2)cc1)C1C2CC3CC1CC(O)(C3)C2 (stereo not shown) [Example 7c, N-(5-Hydroxy-adamantan-2-yl)-N-methyl-4-[4-(pyridine-2-sulfonylamino)-cyclohexyl-oxy]-benzamide]

Row | SMILES | IC50 [µM]
34 | CC(C)(C)OC(=O)N1C[C@@H]2CC1CN2c1ccc(C(=O)N2CC3CCC(CC3)C2)cc1 (stereo in doubt) [Example 1h, (1S,4S)-5-[4-(3-Aza-bicyclo[3.2.2]nonane-3-carbonyl)-phenyl]-2,5-diaza-bicyclo[2.2.1]heptane-2-carboxylic acid tert-butyl ester] | 0.389
